Reference: patent publication US12636385B2, “Selective ligands for tau aggregates” (Sentonix, Inc., priority 2018, dated 2026)

Tests used:
[1] = molecular target: T1, 0N4R Tau fibrils (Homo sapiens, UniProt P10636); assay: ^3H-THK5117 competition binding to tau fibrils in vitro; conditions: for IC50: 3 nM [^3H]-THK5117, recombinant 0N4R tau fibrils, average if run more than once; for Selectivity for tau relative to Aβ: calculated from [^3H]-THK5117 tau and [^3H]-AZD2184 Aβ assays
T1 construct: made in house
T1 sequence (P10636 1-383 isoform P10636-6): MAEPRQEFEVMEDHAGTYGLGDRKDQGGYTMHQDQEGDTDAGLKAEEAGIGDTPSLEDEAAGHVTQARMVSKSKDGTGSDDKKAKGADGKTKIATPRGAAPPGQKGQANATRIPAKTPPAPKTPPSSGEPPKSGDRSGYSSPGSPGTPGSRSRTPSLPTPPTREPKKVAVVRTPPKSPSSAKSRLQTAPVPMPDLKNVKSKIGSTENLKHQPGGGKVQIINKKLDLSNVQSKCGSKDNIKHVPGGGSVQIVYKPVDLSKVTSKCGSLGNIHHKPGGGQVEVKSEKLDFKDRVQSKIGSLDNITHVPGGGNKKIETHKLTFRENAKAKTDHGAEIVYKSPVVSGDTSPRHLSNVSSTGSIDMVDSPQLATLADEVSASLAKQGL
Experimental: Preparation of recombinant 0N4R Tau fibrils was performed as previously described in Morozova, O. A., Biochemistry (2013), Vol., 52(40), pages 6960-6967. Competition binding experiments to 0N4R Tau fibrils were performed by incubating increasing concentrations [10^−10-10^−6 M] of the Example compounds of the invention, or the known tau specific ligand PBB3 (PBB3 was synthesized as previously described in M. Maruyama, et al, Neuron 2013, 79, 1094-1108) or MK6240 (Novandi Chemistry AB), in the presence of 3 nM of the known tau ligand [^3H]-THK5117 (Novandi Chemistry) and 0.2 mM 0N4R tau fibrils in binding buffer (50 mM Tris-HCl, pH 7.4, 0.1% BSA) for 1 h in the dark, and at 22° C. The incubation was terminated by filtration through a Whatman GF/B glass filter (Whatman International, Kent, UK) using a Brandel cell harvester. The filter was then washed rapidly four times with 3 mL of ice-cold wash buffer (5 mM Tris-HCl, 0.25 mM NaCl, 5% EtOH), and equilibrated for 1 h in scintillation vials containing 5 mL of Ultima Gold scintillation fluid before being analysed using a Liquid Scintillation Analyzer.
The results are shown in Table 2 in the column labeled “Tau IC50”.
Relative selectivity for tau compared to Aβ for the exemplified compounds was calculated using the results for the [^3H]-THK5117 tau and [^3H]-AZD2184 Aβ assays described above. The calculated results are shown in Table 2 in the column labeled “Selectivity for tau relative to Aβ”.

[2] = molecular target: T2, Aβ(1-42) amyloid fibrils (Homo sapiens, UniProt P05067); assay: ^3H-AZD2184 competition binding to Aβ(1-42) fibrils in vitro; conditions: [^3H]-AZD2184, Aβ(1-42) amyloid fibrils; average if run more than once
T2 construct: Aβ(1-42) amyloid fibrils
T2 sequence (P05067 672-713): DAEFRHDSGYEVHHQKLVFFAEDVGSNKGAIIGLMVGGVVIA
Experimental: Competition binding experiments to Aβ(1-42) amyloid fibrils were performed as previously described in Jureus, A., et al, Journal of Neurochemistry (2010), Vol. 114, pages 784-794 for the Example compounds of the invention indicated in Table 2, or the known tau specific ligand PBB3 (PBB3 was synthesized as previously described in M. Maruyama, et al, Neuron 2013, 79, 1094-1108).
The results are shown in Table 2 in the column labeled “Aβ IC50”.

IC50 [1] [nM]	Selectivity for tau relative to Aβ [1]	IC50 [2] [nM]	SMILES
19			OCC1CCN(c2ccc(-c3nc4ccccc4s3)cn2)CC1 [Compound 1]
7			FCC1CCN(c2ccc(-c3nc4ccccc4s3)cn2)CC1 [Compound 2]
11	3.9	43	FCCCCOCC1CCN(c2ccc(-c3nc4ccccc4s3)cn2)CC1 [Compound 3]
43			OC1CCN(c2ccc(-c3nc4ccccc4s3)cn2)CC1 [Compound 4]
5	4.8	24	FCCCCOC1CCN(c2ccc(-c3nc4ccccc4s3)cn2)CC1 [Compound 5]
16	0.2	3	FCCOCCOCCOC1CCN(c2ccc(-c3nc4ccccc4s3)cn2)CC1 [Compound 6]
7	2.1	15	OCCC1CCN(c2ccc(-c3nc4ccccc4s3)cn2)CC1 [Compound 7]
8			Cc1ccc(S(=O)(=O)OCCC2CCN(c3ccc(-c4nc5ccccc5s4)cn3)CC2)cc1 [Compound 8]
6			FCCC1CCN(c2ccc(-c3nc4ccccc4s3)cn2)CC1 [Compound 9]
31			NC(=O)COC1CCN(c2ccc(-c3nc4ccccc4s3)cn2)CC1 [Compound 10]
64			OCCC1CCN(c2ccc(-c3nc4ccccc4o3)cn2)CC1 [Compound 11]
17			CS(=O)(=O)OCCC1CCN(c2ccc(-c3nc4ccccc4o3)cn2)CC1 [Compound 12]
13			FCCC1CCN(c2ccc(-c3nc4ccccc4o3)cn2)CC1 [Compound 13]
22			c1ccc2oc(-c3ccc(N4CCCCC4)nc3)nc2c1 [Compound 14]
39			COC1CCN(c2ccc(-c3nc4ccccc4o3)cn2)CC1 [Compound 15]
59			CC1CCN(c2ccc(-c3nc4ccccc4o3)cn2)CC1 [Compound 16]
73			N#CC1CCN(c2ccc(-c3nc4ccccc4o3)cn2)CC1 [Compound 17]
39			OCCC1CCN(c2ccc(-c3nc4cnccc4o3)cn2)CC1 [Compound 18]
76			CS(=O)(=O)OCCC1CCN(c2ccc(-c3nc4cnccc4o3)cn2)CC1 [Compound 19]
60			FCCC1CCN(c2ccc(-c3nc4cnccc4o3)cn2)CC1 [Compound 20]
5	14	70	COc1ccc2nc(-c3ccc(N4CCC(CCO)CC4)nc3)sc2c1 [Compound 21]
4	1	4	COc1ccc2nc(-c3ccc(N4CCC(CCOCCOCCOCCF)CC4)nc3)sc2c1 [Compound 22]
4	1	4	COc1ccc2nc(-c3ccc(N4CCC(OCCO)CC4)nc3)sc2c1 [Compound 23]
2	0.5	1	COc1ccc2nc(-c3ccc(N4CCC(CCF)CC4)nc3)sc2c1 [Compound 24]
3	22	65	COc1ccc2nc(-c3cnc(N4CCC(CCO)CC4)nc3)sc2c1 [Compound 25]
5	1.6	8	COc1ccc2nc(-c3cnc(N4CCC(CCOCCOCCOCCF)CC4)nc3)sc2c1 [Compound 26]

IC50 [1] [nM]	Selectivity for tau relative to Aβ [1]	IC50 [2] [nM]	SMILES
7	4.9	34	OCCC1CCN(c2ccc(-c3cc4ccccc4o3)cn2)CC1 [Compound 27]
10	1.5	15	OCCC1CCN(c2ncc(-c3cc4ccccc4o3)cn2)CC1 [Compound 28]
32			COS(=O)(=O)CCC1CCN(c2ncc(-c3cc4ccccc4o3)cn2)CC1 [Compound 29]
12	2.1	25	FCCC1CCN(c2ncc(-c3cc4ccccc4o3)cn2)CC1 [Compound 30]
15			OCCOC1CCN(c2ncc(-c3cc4ccccc4o3)cn2)CC1 [Compound 31]
43	1.5	66	OC1CCN(c2ncc(-c3cc4ccccc4o3)cn2)CC1 [Compound 32]
32			NC(=O)COC1CCN(c2ncc(-c3cc4ccccc4o3)cn2)CC1 [Compound 34]
100			OCCC1CCN(c2ccc(-c3cc4ccccc4o3)nn2)CC1 [Compound 35]
14			OCCC1CCN(c2ccc(-c3nc4ccc(OCC(O)CF)cc4s3)cn2)CC1 (stereo not shown) [Compound 37]
10			NC(=O)c1ccc2nc(-c3cnc(N4CCC(CCO)CC4)nc3)sc2c1 [Compound 41]
15			CS(=O)(=O)OCCC1CCN(c2ncc(-c3nc4ccc(C(N)=O)cc4s3)cn2)CC1 [Compound 42]
4			CCOC(=O)c1ccc2nc(-c3cnc(N4CCC(CCF)CC4)nc3)sc2c1 [Compound 44]
49			OCCC1CCN(c2ncc(-c3nc4ccccc4[nH]3)cn2)CC1 [Compound 49, 2-{1-[5-(1H-1,3-Benzodiazol-2-yl)pyrimidin-2-yl]piperidin-4-yl}ethan-1-ol]
4			OCCC1CCN(c2ccc(-c3cc4ccccc4s3)cn2)CC1 [Compound 50, 2-{1-[5-(1-Benzothiophen-2-yl)pyridin-2-yl]piperidin-4-yl}ethan-1-ol]
13			COc1ccc2[nH]c(-c3ccc(N4CCC(CCO)CC4)nc3)cc2c1 [Compound 51, 2-{1-[5-(5-Methoxy-1H-indol-2-yl)pyridin-2-yl]piperidin-4-yl}ethan-1-ol]
7			OCC1CCN(c2ccc(-c3nc4ccc(O)cc4s3)cn2)CC1 [Compound 55]
5			CCOC(=O)c1ccc2nc(-c3cnc(N4CCC(CCO)CC4)nc3)sc2c1 [Compound 59]
19			O=C(NCCF)c1ccc2nc(-c3cnc(N4CCC(CCO)CC4)nc3)sc2c1 [Compound 61]
2.3			CCOC(=O)C1CCN(c2ccc(-c3cc4ccc(OC)cc4[nH]3)c(F)n2)CC1 [Compound 63, Ethyl 1-[6-Fluoro-5-(6-methoxy-1H-indol-2-yl)pyridin-2-yl]piperidine-4-carboxylate]
24			CNC(=O)c1ccc2cc(-c3ccc(N4CCC(CO)CC4)nc3F)[nH]c2c1 [Compound 64, 2-{2-Fluoro-6-[4-(hydroxymethyl)piperidin-1-yl]pyridin-3-yl}-N-methyl-1H-indole-6-carboxamide]
20			NC(=O)c1ccc2cc(-c3cnc(N4CCC(CF)CC4)nc3)[nH]c2c1 [Compound 70, 2-{2-[4-(Fluoromethyl)piperidin-1-yl]pyrimidin-5-yl}-1H-indole-6-carboxamide]
41			OCC1CCN(c2ccc(-c3cc4cccnc4[nH]3)c(F)n2)CC1 [Compound 73, [1-(6-Fluoro-5-{1H-pyrrolo[2,3-b]pyridin-2-yl}pyridin-2-yl)piperidin-4-yl]methanol]
14			COc1cnc2[nH]c(-c3ccc(N4CCC(CO)CC4)nc3F)cc2c1 [Compound 74]
14			OCC1CCN(c2ccc(-c3cc4cc(O)cnc4[nH]3)c(F)n2)CC1 [Compound 75]
14			OCC1CCN(c2ccc(-c3cc4cc(OCCF)ccc4[nH]3)cn2)CC1 [Compound 77]
